The values below come from article PMC11035696, “Prospective de novo drug design with deep interactome learning” (Nature Communications, 2024).

Each structure is given as a SMILES string. “And” between values parts separate entries of the source, which are not always exact repeats. Equal values may be shown once.

For assay [1], the system named is PPARγ. To be noted: known PPARγ activity of ChEMBL ligands; ref ChEMBL database; cited from earlier work.
The target of assay [2] is T1, human PPARγ (Homo sapiens, UniProt P37231).
T1 construct: expressed in transfected cells; host or cells: HEK293T
T1 sequence (P37231 238-503 limits assumed): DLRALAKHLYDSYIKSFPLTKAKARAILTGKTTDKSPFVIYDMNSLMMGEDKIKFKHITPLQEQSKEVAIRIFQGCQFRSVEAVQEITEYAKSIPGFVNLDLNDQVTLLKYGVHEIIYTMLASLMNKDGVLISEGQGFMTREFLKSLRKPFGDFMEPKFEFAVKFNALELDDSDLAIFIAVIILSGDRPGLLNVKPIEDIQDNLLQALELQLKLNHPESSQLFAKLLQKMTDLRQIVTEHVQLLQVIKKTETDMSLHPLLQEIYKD
The assay can be described thus: Gal4-hybrid reporter gene assay, PPARγ activation. Type of assay: cell-based. As to the method: (§1) Compounds 1–3 were characterized in a hybrid reporter gene assay for their agoniztic effect on human nuclear receptors PPARα/γ/δ, RXRα, FXRα, RARα in HEK293T cells. Compound 1 was tested in an isothermal titration calorimetry (ITC) assay to measure direct binding affinity to the ligand-binding domain of PPARγ. ADME properties were measured in standardized assays at Roche.
(§2) PPAR activation was determined in uniform Gal4-hybrid reporter gene assays for the PPARα, PPARγ and PPARδ isoforms in HEK293T cells (German Collection of Microorganisms and Cell Culture GmbH, DSMZ) which were transiently transfected with pFR-Luc (Stratagene, La Jolla, CA, USA; reporter) and pRL-SV40 (Promega, Madison, WI, USA; internal control) and one pFA-CMV-hPPAR-LBD[97] clone, coding for the hinge region and ligand binding domain of the canonical isoform of human PPARα, PPARγ, PPARδ or respectively. Cells were cultured in Dulbecco’s modified Eagle’s medium (DMEM), high glucose supplemented with 10% fetal calf serum (FCS), sodium pyruvate (1 mM), penicillin (100 U ⋅ ml^-1), and streptomycin (100 μg ⋅ ml^-1) at 37 °C and 5% CO2 and seeded in 96-well plates (3 × 10^4 cells per well). After 24 h, medium was changed to Opti-MEM without supplements and cells were transiently transfected using Lipofectamine LTX reagent (Invitrogen) according to the manufacturer’s protocol. Five hours after transfection, cells were incubated with the test compounds in Opti-MEM supplemented with penicillin (100 U ⋅ ml^-1), streptomycin (100 μg ⋅ ml^-1) and 0.1% DMSO for 16 h before luciferase activity was measured using the Dual-Glo Luciferase Assay System (Promega) according to the manufacturer’s protocol on a Tecan Spark luminometer (Tecan Deutschland GmbH, Germany). Firefly luminescence was divided by Renilla luminescence and multiplied by 1000 resulting in relative light units (RLU) to normalize for transfection efficiency and cell growth. Fold activation was obtained by dividing the mean RLU of a test compound by the mean RLU of the untreated control. All samples were tested in at least three biologically independent experiments in duplicates. For dose-response curve fitting and calculation of EC50 values, the equation “[Agonist] versus response (variable slope—four parameters)” was used in GraphPad Prism (version 7.00, GraphPad Software, La Jolla, CA, USA) with fold activation data. The reference agonizts GW7647 (PPARα)[98],[99], pioglitazone (PPARγ)[100],[101] and L165,041 (PPARδ)[102],[103] were used to validate the assays and to monitor assay performance. Nuclear receptor selectivity profiling was performed with corresponding pFA-CMV-hNR-LBD clones and suitable reference agonizts on RARα (pFA-CMV-hRARα-LBD[104], 1 μM tretinoin), LXRα (pFA-CMV-hLXRα-LBD[104], 1 μM TO901317) and RXRα (pFA-CMV-h RXRα-LBD[105], 1 μM Bexarotene).
A general note: A reporter such as luciferase makes a cellular process visible.

In assay [3] the target is T2, human PPARδ (Homo sapiens, UniProt Q03181).
T2 construct: expressed in transfected cells; host or cells: HEK293T
T2 sequence (Q03181 211-439 limits assumed): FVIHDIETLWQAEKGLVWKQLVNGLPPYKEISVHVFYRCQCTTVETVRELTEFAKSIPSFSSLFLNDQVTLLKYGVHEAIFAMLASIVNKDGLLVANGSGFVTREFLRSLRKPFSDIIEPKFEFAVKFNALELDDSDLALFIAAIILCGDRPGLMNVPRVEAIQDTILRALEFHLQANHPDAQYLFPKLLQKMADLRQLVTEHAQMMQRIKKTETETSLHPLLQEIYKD
Put plainly: Gal4-hybrid reporter gene assay, PPARδ activation. Type of assay: cell-based. Conditions: result in words. As to the method: as §1
PPAR activation was determined in uniform Gal4-hybrid reporter gene assays for the PPARα, PPARγ and PPARδ isoforms in HEK293T cells (German Collection of Microorganisms and Cell Culture GmbH, DSMZ) which were transiently transfected with pFR-Luc (Stratagene, La Jolla, CA, USA; reporter) and pRL-SV40 (Promega, Madison, WI, USA; internal control) and one pFA-CMV-hPPAR-LBD[97] clone, coding for the hinge region and ligand binding domain of the canonical isoform of human PPARα, PPARγ, PPARδ or respectively. Cells were cultured in Dulbecco’s modified Eagle’s medium (DMEM), high glucose supplemented with 10% fetal calf serum (FCS), sodium pyruvate (1 mM), penicillin (100 U ⋅ ml^-1), and streptomycin (100 μg ⋅ ml^-1) at 37 °C and 5% CO2 and seeded in 96-well plates (3 × 10^4 cells per well). After 24 h, medium was changed to Opti-MEM without supplements and cells were transiently transfected using Lipofectamine LTX reagent (Invitrogen) according to the manufacturer’s protocol. Five hours after transfection, cells were incubated with the test compounds in Opti-MEM supplemented with penicillin (100 U ⋅ ml^-1), streptomycin (100 μg ⋅ ml^-1) and 0.1% DMSO for 16 h before luciferase activity was measured using the Dual-Glo Luciferase Assay System (Promega) according to the manufacturer’s protocol on a Tecan Spark luminometer (Tecan Deutschland GmbH, Germany). Firefly luminescence was divided by Renilla luminescence and multiplied by 1000 resulting in relative light units (RLU) to normalize for transfection efficiency and cell growth. Fold activation was obtained by dividing the mean RLU of a test compound by the mean RLU of the untreated control. […]

For assay [4], the target named is T3, human PPARα (Homo sapiens, UniProt Q07869).
T3 construct: expressed in transfected cells; host or cells: HEK293T
T3 sequence (Q07869 239-466 limits assumed): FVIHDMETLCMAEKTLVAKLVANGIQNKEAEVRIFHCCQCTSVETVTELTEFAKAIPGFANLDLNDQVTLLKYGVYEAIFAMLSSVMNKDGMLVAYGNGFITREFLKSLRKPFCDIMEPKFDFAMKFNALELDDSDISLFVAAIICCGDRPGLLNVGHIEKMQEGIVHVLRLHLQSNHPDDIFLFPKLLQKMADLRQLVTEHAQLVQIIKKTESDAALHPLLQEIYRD
The assay can be described thus: Gal4-hybrid reporter gene assay, PPARα activation. It is filed as cell-based. Conditions: for Fold PPARα activation: individual replicates, source data Fig. 5. As to the method: as §1, §2

Assay [5] addresses T4, retinoid X receptor (RXR)α (Homo sapiens, UniProt P19793).
T4 construct: RXRα (pFA-CMV-h RXRα-LBD[105], 1 μM Bexarotene); expressed in transfected cells; host or cells: HEK293T
T4 sequence (P19793 227-458 limits assumed): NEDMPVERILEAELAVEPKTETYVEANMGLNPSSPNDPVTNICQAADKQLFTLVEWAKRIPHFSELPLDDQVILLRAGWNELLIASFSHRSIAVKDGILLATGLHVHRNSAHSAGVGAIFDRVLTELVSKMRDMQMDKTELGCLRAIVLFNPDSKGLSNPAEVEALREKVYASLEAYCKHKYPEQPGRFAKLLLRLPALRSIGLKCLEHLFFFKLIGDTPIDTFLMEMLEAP
The assay can be described thus: Nuclear receptor selectivity profiling, hybrid reporter gene assay, RXRα. It is filed as cell-based. As to the method:
as §1, §2

The target of assay [6] is T5, liver X receptor (LXR)α (Homo sapiens, UniProt Q13133).
T5 construct: LXRα (pFA-CMV-hLXRα-LBD[104], 1 μM TO901317); expressed in transfected cells; host or cells: HEK293T
T5 sequence (Q13133 209-447 limits assumed): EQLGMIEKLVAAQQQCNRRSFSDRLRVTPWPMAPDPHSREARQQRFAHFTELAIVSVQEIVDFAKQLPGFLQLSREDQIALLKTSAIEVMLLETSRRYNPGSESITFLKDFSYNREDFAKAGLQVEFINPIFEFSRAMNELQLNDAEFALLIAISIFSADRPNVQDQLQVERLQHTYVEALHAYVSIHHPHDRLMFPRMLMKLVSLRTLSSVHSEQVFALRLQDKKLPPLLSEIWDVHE
The assay can be described thus: Nuclear receptor selectivity profiling, hybrid reporter gene assay, LXRα. Type of assay: cell-based. As to the method: as §2

The target of assay [7] is T6, retinoic acid receptor (RAR)α (Homo sapiens, UniProt P10276).
T6 construct: RARα (pFA-CMV-hRARα-LBD[104], 1 μM tretinoin); expressed in transfected cells; host or cells: HEK293T
T6 sequence (P10276 183-417 limits assumed): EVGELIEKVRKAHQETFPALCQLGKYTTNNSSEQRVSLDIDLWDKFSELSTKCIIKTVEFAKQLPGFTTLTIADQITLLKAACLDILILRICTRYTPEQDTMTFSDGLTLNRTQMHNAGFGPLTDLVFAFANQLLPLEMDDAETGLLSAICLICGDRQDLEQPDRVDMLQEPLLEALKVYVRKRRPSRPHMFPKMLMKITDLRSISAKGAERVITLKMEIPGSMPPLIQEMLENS
The assay can be described thus: Nuclear receptor selectivity profiling, hybrid reporter gene assay, RARα. It is filed as cell-based. The method, then: as §1, §2

A word on the pEC50: it is the negative decadic logarithm of the EC50, by convention in mol/L. `CCCc1cc(C(F)(F)F)ccc1OCCCOc1ccc(OCC(=O)O)c(C)c1` [ChEMBL213355]: the negative logarithm of the EC50 (pEC50) in assay [1] is reported as 6.82.

For `Cc1cc(OCC[C@@H](C)Oc2ccc(Cl)cc2-c2ccccn2)ccc1CCC(=O)O` [ChEMBL241299], the pEC50 in assay [1] is 6.51.

For `Cc1sc(-c2ccccc2F)nc1CCOc1ccc2c(c1)CC[C@H]2CC(=O)O` [ChEMBL391987], the pEC50 in assay [1] was 6.94.

As usually defined, the EC50 is the concentration giving half of the maximal effect. As for `COc1ccc(Oc2ccc3c(c2)ncn3CCOc2ccc(CCC(=O)O)cc2)cc1` [Compound 3], the “PPARγ reporter activation, replicate values (Figure 5)” value in assay [2] (conc. 0,00000100 M) is 3,029 and 3,245 and 3,909 and 5,555 and 6,269 and 5,771 and 5,328; in assay [2] (conc. 0,00000200 M) it was 8,955 and 11,943 and 12,245 and 11,406; in assay [2] (conc. 0,00000300 M), 17,358 and 14,143 and 17,954; in assay [2] (conc. 0,00001000 M) it was 19,221 and 19,629 and 17,043 and 19,534 and 21,221 and 20,328 and 19,624; in assay [2] (conc. 1,00000000e-007 M), 0,766 and 0,976 and 1,313; in assay [2] (conc. 1,00000000e-008 M) it was 0,785 and 0,961 and 1,208. For the same molecule, the “PPARγ reporter activation, replicate values (Figure 5)” value in assay [2] (conc. 3,00000000e-007 M) was 1,068 and 1,571 and 1,294 and 2,247 and 2,063 and 1,947 and 1,524. Moreover, the EC50 in assay [2] (hybrid reporter gene assay, HEK293T cells, read-out: EC50(PPARγ)) was determined as 1800 ± 100 nM; in assay [4] (hybrid reporter gene assay, HEK293T cells), 3400 ± 300 nM. Moreover, the “activity on PPARδ” value in assay [3] is on record as “no discernible activity”. In addition, the “Fold PPARα activation” value in assay [4] (conc. 0,00000100 M) is 1,270 and 1,357 and 1,503; in assay [4] (conc. 0,00000300 M), 2,302 and 2,145 and 2,016; in assay [4] (conc. 0,00000600 M), 4,397 and 3,518 and 3,421; in assay [4] (conc. 0,00001000 M), 4,249 and 4,283 and 3,276; in assay [4] (conc. 1,00000000e-007 M), 0,978 and 1,133 and 1,009; in assay [4] (conc. 1,00000000e-008 M), 1,321 and 1,277 and 1,261. Also, the “Fold PPARα activation” value in assay [4] (conc. 3,00000000e-007 M) was 1,112 and 1,105 and 1,170. In addition, the “RXRα reporter activation, replicate values (DMSO ctrl = 1,000)” value in assay [5] (3 µM) was 1,197 and 1,077 and 1,363; in assay [5] (10 µM), 1,155 and 1,200 and 1,295. Besides, the “LXRα reporter activation, replicate values (DMSO ctrl = 1,000)” value in assay [6] (3 µM) was 2,211 and 1,139 and 1,444; in assay [6] (10 µM) it was 2,149 and 1,346 and 1,762. Moreover, the “RARα reporter activation, replicate values (DMSO ctrl = 1,000)” value was 1,594 and 0,817 and 1,542 in assay [7] (3 µM); 1,322 and 1,046 and 1,521 in assay [7] (10 µM).
